The numbers were not newly measured in US20250356483A1, “Quality Control Of In-Vitro Analysis Sample Output” (Sanofi, priority 2022, published 2025), which cites them from elsewhere.

The test system of this series is liver cells. The settings on record: CPZ@60 micro moles.

Turning to `CN(C)CCCN1c2ccccc2Sc2ccc(Cl)cc21` [CPZ, Chlorpromazine], the “known toxic effect of reference compound (positive control)” value was “toxic to liver cells and triggers cholestasis”.
